Assay results as given in ChEMBL document CHEMBL5550085, “A new small molecule DoNA binding to CAG repeat RNA” (Bioorg Med Chem, 2024).
pKd: −log10 of the molar value. Active and inactive are the calls of the source. The rule behind the calls is not given here.

How the values were obtained:
Type in all cases: nucleic-acid assay
RNA [1] = assay: Binding affinity to CAG repeat RNA terminal (unknown origin)
RNA [2] = assay: Binding affinity to CAG repeat RNA overhang (unknown origin)
RNA [3] = assay: Binding affinity to (CAG)10 repeat RNA (unknown origin) at 2 uM by SPR analysis
RNA [4] = assay: Binding affinity to 5' (CAG)3 repeat RNA overhang (unknown origin) at 2 uM by SPR analysis
RNA [5] = assay: Binding affinity to (CAG)2 repeat RNA hairpin loop (unknown origin) by SPR analysis
RNA [6] = assay: Binding affinity to (CAG)10 repeat RNA internal loop (unknown origin) by SPR analysis
RNA [7] = assay: Binding affinity to (CAG)10 repeat RNA (unknown origin) by SPR analysis; details: dose 1.0 µM
RNA [8] = assay: Binding affinity to (CAG)2 repeat RNA (unknown origin) at 0.063 to 2 uM by SPR analysis; details: dose 0.063-2 µM
RNA [9] = assay: Binding affinity to (CAG)10 repeat RNA (unknown origin) assessed as dissociation rate constant by SPR analysis
RNA [10] = assay: Binding affinity to (CAG)3 repeat RNA hairpin loop (unknown origin) by SPR analysis; details: dose 0.063-2 µM
RNA [11] = assay: Binding affinity to 3' (CAG) repeat RNA hairpin loop (unknown origin) at 2 uM by SPR analysis
RNA [12] = assay: Binding affinity to (CAG)10 repeat RNA (unknown origin) assessed as dissociation constant by SPR analysis
RNA [13] = assay: Binding affinity to 5' (CAG) repeat RNA hairpin loop (unknown origin) at 2 uM by SPR analysis
RNA [14] = assay: Binding affinity to 5' (CAG)2 repeat RNA overhang (unknown origin) at 2 uM by SPR analysis
RNA [15] = assay: Binding affinity to (CAG)10 repeat RNA (unknown origin) assessed as association constant by SPR analysis
RNA [16] = assay: Binding affinity to (CAG)10 repeat RNA (unknown origin) at 20 uM by CSI-TOF MS analysis
RNA [17] = assay: Binding affinity to 3' (CAG)2 repeat RNA overhang (unknown origin) at 0.063 to 2 uM by SPR analysis; details: dose 0.063-2 µM
RNA [18] = assay: Binding affinity to (CAG)3 repeat RNA (unknown origin) at 0.063 to 2 uM by SPR analysis; details: dose 0.063-2 µM
RNA [19] = assay: Binding affinity to 5' (CAG)2 repeat RNA overhang (unknown origin) by SPR analysis; details: dose 0.063-2 µM
RNA [20] = assay: Binding affinity to 5' (CAG)3 repeat RNA overhang (unknown origin) by SPR analysis; details: dose 0.063-2 µM

Structure (SMILES) | Activity (RNA [1]) | Activity (RNA [2]) | Activity (RNA [3]) | Activity (RNA [4]) | Activity (RNA [5]) | Activity (RNA [6]) | Activity (RNA [7]) | Activity (RNA [8]) | Kdiss (RNA [9]) | Activity (RNA [10]) | Activity (RNA [11]) | pKd (RNA [12]) | Activity (RNA [13]) | Activity (RNA [14]) | Ka (RNA [15]) | Activity (RNA [16]) | Activity (RNA [17]) | Activity (RNA [18]) | Activity (RNA [19]) | Activity (RNA [20])
Cc1ccc2ccc(NC(=O)CCNCCC(=O)NCc3ccc4ccc(=O)[nH]c4n3)nc2n1 | inactive | inactive | inactive | – | – | – | – | – | – | – | – | – | – | – | – | – | – | – | – | –
Cc1ccc2ccc(NC(=O)CCN(CCCCCN(CCC(=O)NCc3ccc4ccc(=O)[nH]c4n3)CCC(=O)Nc3ccc4ccc(C)nc4n3)CCC(=O)NCc3ccc4ccc(=O)[nH]c4n3)nc2n1 | – | – | – | inactive | inactive | Active | Dose-Dependent Effect | Active | 2.9 10^-2/s | Dose-Dependent Effect | Active | 5.21 | Active | inactive | 0.47 10^4/M/s | Active | Active | Active | Dose-Dependent Effect | Dose-Dependent Effect
